The record followed here is patent publication US8759532B2, “Pyridine and pyrimidine derivatives as phosphodiesterase 10 inhibitors” (AMGEN Inc., priority 2008, dated 2014).

For the experiment, the target named is PDE10 (Mus musculus, UniProt Q8CA95). Description: PDE10 enzyme inhibition, IMAP TR-FRET assay. In kind it is biochemical. The protocol: MPDE10A7 Enzyme Activity and Inhibition
An IMAP TR-FRET assay was used to analyze the enzyme activity (Molecular Devices Corp., Sunnyvale Calif.). 5 μL of serial diluted PDE10A (BPS Bioscience, San Diego, Calif.) or tissue homogenate was incubated with equal volumes of diluted fluorescein labeled cAMP or cGMP for 60 min in 384-well polystyrene assay plates (Corning, Corning, N.Y.) at room temperature. After incubation, the reaction was stopped by adding 60 μL of diluted binding reagents and was incubated for 3 hours to overnight at room temperature. The plates were read on an Envision (Perkin Elmer, Waltham, Mass.) for time resolved fluorescence resonance energy transfer. The data were analyzed with GraphPad Prism (La Jolla, Calif.).
To check the inhibition profile, 5 μL of serial diluted compounds were incubated with 5 μL of diluted PDE10 enzyme (BPS Bioscience, San Diego, Calif.) or tissue homogenate in a 384-well polystyrene assay plate (Corning, Corning, N.Y.) for 30 min at room temperature. After incubation, 10 μL of diluted fluorescein labeled cAMP or cGMP substrate were added and incubated for 60 min at room temperature. The reaction was stopped by adding 60 μL of diluted binding reagents and plates were read on an Envision (Perkin Elmer, Waltham, Mass.) for time resolved fluorescence resonance energy transfer. The data were analyzed with GraphPad Prism (La Jolla, Calif.).
The tabulated IC50 data represent an average IC50 data for each compound.

pIC50: −log10 of the molar value.

Sequence of PDE10 (Q8CA95 whole entry, looked up): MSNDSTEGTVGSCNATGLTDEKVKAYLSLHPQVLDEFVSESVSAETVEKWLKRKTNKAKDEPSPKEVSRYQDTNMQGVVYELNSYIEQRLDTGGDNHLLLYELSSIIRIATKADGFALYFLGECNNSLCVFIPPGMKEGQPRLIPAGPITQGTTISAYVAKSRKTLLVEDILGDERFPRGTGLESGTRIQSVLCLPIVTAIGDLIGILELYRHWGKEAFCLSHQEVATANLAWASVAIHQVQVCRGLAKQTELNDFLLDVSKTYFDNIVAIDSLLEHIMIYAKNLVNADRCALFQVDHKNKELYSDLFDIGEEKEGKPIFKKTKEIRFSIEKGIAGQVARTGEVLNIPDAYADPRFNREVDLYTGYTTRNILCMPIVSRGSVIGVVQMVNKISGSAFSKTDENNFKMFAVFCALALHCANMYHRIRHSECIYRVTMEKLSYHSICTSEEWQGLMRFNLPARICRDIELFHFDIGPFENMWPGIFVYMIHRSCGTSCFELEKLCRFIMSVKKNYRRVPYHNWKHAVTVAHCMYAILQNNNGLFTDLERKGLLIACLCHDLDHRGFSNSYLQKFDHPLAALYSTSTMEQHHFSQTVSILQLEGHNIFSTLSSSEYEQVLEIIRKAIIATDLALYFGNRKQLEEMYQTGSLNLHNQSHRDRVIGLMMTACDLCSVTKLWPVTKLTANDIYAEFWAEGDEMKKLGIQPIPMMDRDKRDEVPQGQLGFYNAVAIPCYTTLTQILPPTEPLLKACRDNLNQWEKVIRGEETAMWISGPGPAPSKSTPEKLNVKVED

What is called pIC50 is −log10 of the IC50, conventionally taken in molar units. Read a high pIC50 as a low IC50. Take `COc1cnccc1-c1cccnc1Oc1ccc(Nc2nc3ccccc3s2)cc1` [Example 165, N-(4-(3′-methoxy-3,4′-bipyriidn-2-yloxy)phenyl)benzo[d]thiazol-2-amine]: the pIC50 (IC50 class against PDE10, Table IIA) is > 7.60. Turning to “(R)-4-(2-(4-(1H-benzo[d]imidazole-2-carbonyl)phenoxy)pyridin-3-yl)-1-methylpyrrolidin-2-one and (S)-4-(2-(4-(1H-benzo[d]imidazole-2-carbonyl)phenoxy)pyridin-3-yl)-1-methylpyrrolidin-2-one [Example 209]”, under “IC50 class against PDE10, printed at end of example text”, the pIC50 is > 7.60.

Consider `FC(F)(F)c1cc(-c2cccnc2Oc2ccc(Cc3nc4ccccc4[nH]3)cc2)ccn1` [Example 62, 2-(4-(2′-(trifluoromethyl)-3,4′-bipyriidn-2-yloxy)benzyl)-1H-benzo[d]imidazole], for which the pIC50 (IC50 class against PDE10, Table IA) is 6.60 to 7.00.
